Results reported in US9066518B2, “Heterocyclic compounds as pesticides” (Bayer CropScience AG, priority 2009, dated 2015).

Tested on: green peach aphid (Myzus persicae)
Experiment: Myzus test (spray treatment)
Assay type: in vivo
Settings: foliar, 144 h, application rate 500 g/ha, after 6 days, Chinese cabbage leaf discs, read-out: activity (effect in %, aphids killed)
Experimental: Solvents: 78 parts by weight of acetone
• 1.5 parts by weight of dimethylformamide Emulsifier 0.5 part by weight of alkylaryl polyglycol ether
To produce a suitable preparation of active compound, 1 part by weight of active compound is mixed with the stated amounts of solvents and emulsifier, and the concentrate is diluted with emulsifier-containing water to the desired concentration. Discs of leaves of Chinese cabbage (Brassica pekinensis) which are infested by all stages of the green peach aphid (Myzus persicae) are sprayed with an active compound preparation of the desired concentration.
After 6 days, the effect in % is determined. 100% means that all aphids have been killed; 0% means that none of the aphids has been killed.

Structure (SMILES)	pest or weed control at 500 g/ha
c1cnc(-c2nccc(-c3cnn(-c4cccnc4)c3)n2)nc1 [Example 46]	100%
c1ccc(-c2csc(-c3cnn(-c4cccnc4)c3)n2)nc1 [Example 47]	100%
FC(F)CNc1cccc(-c2cnn(-c3cccnc3)c2)n1 [Example 48]	100%
COCC1(c2cccc(-c3cnn(-c4cccnc4)c3)n2)OCCCO1 [Example 49]	100%
FC(F)(F)c1ccc(-c2cnn(-c3cccnc3)c2)cc1 [Example 50]	90%
Clc1ccc(-c2cnn(-c3cccnc3)c2)cc1 [Example 51]	90%
c1cncc(-n2cc(-c3cccc(-n4nccn4)n3)cn2)c1 [Example 54]	100%
CS(=O)(=O)c1cccc(-c2cnn(-c3cccnc3)c2)n1 [Example 56]	100%
O=C(NCC(F)(F)F)c1cccc(-c2cnn(-c3cccnc3)c2)n1 [Example 57]	100%
CN1CCOC(c2cccc(-c3cnn(-c4cccnc4)c3)n2)=N1 [Example 58]	100%
Fc1cncc(-n2cc(-c3cccc(C(F)(F)F)n3)cn2)c1 [Example 59]	100%
c1cncc(-n2cc(-c3cccc(C4OCC5(CC5)CO4)n3)cn2)c1 [Example 60]	100%
c1cncc(-n2cc(-c3cccc(-n4ccnn4)n3)cn2)c1 [Example 61]	90%
c1cncc(-n2cc(-c3cccc(-c4noc(C5CC5)n4)n3)cn2)c1 [Example 62]	100%
FC(F)c1cccc(-c2cnn(-c3cccnc3)c2)n1 [Example 63]	100%
c1cncc(-n2cc(-c3cccc(-c4nc[nH]n4)n3)cn2)c1 [Example 64]	100%
ClC1(c2cccc(-c3cnn(-c4cccnc4)c3)n2)CC1 [Example 65]	90%
CC(C)C(F)(F)c1cccc(-c2cnn(-c3cccnc3)c2)n1 [Example 66]	100%
CC(C)C(=O)c1cccc(-c2cnn(-c3cccnc3)c2)n1 [Example 67]	100%
c1cc(-c2cnn(-c3cncnc3)c2)nc(C2OCCCO2)c1 [Example 68]	100%
CC1(c2cccc(-c3cnn(-c4cccnc4)c3)n2)OCCCO1 [Example 69]	100%
Cc1nc(-c2cccc(-c3cnn(-c4cccnc4)c3)n2)no1 [Example 70]	100%
CC1CC(C)OC(c2cccc(-c3cnn(-c4cccnc4)c3)n2)O1 (stereo not shown) [Example 71]	100%
CC1OC(c2cccc(-c3cnn(-c4cccnc4)c3)n2)OC1C (stereo not shown) [Example 72]	100%
Fc1cncc(-n2cc(-c3cccc(C4OCCCO4)n3)cn2)c1 [Example 73]	100%
FC(F)(F)c1nc(-c2cccc(-c3cnn(-c4cccnc4)c3)n2)no1 [Example 74]	100%
C=C1COC(c2cccc(-c3cnn(-c4cccnc4)c3)n2)OC1 [Example 75]	100%
c1cncc(-n2cc(-c3cccc(-c4ncco4)n3)cn2)c1 [Example 76]	100%
Cc1ccn(-c2cccc(-c3cnn(-c4cccnc4)c3)n2)n1 [Example 77]	100%

Same assay, conditions: in Brassica rapa, foliar, 144 h, read-out: activity (effect in %, aphids killed)

Structure (SMILES)	pest or weed control at 500 g/ha
CC1(c2cccc(-c3cnn(-c4cccnc4)c3)n2)OCCO1 [Example 10, 2-(2-Methyl-1,3-dioxolan-2-yl)-6-(1-pyridin-3-yl-1H-pyrazol-4-yl)pyridine]	100%
N#Cc1cccc(-c2cnn(-c3cccnc3)c2)n1 [Example 30, 6-(1-Pyridin-3-yl-1H-pyrazol-4-yl)pyridine-2-carbonitrile]	100%

Tested on: not listed separately
Experiment: logP determination (neutral / HCOOH)
Settings: HCOOH

Structure (SMILES)	logP (HCOOH)
CC1OC(c2cccc(-c3cnn(-c4cccnc4)c3)n2)OC1C (stereo not shown) [Example 72]	2.09

Same assay, conditions: HCOOH (formic acid), logP (HCOOH), HCOOH

Structure (SMILES)	chromatographic logP
c1cnc(-c2nccc(-c3cnn(-c4cccnc4)c3)n2)nc1 [Example 46]	0.86
c1ccc(-c2csc(-c3cnn(-c4cccnc4)c3)n2)nc1 [Example 47]	1.55
FC(F)CNc1cccc(-c2cnn(-c3cccnc3)c2)n1 [Example 48]	1.52
FC(F)(F)c1ccc(-c2cnn(-c3cccnc3)c2)cc1 [Example 50]	2.98
Clc1ccc(-c2cnn(-c3cccnc3)c2)cc1 [Example 51]	2.71
c1cncc(-n2cc(-c3cccc(-n4nccn4)n3)cn2)c1 [Example 54]	1.63
CS(=O)(=O)c1cccc(-c2cnn(-c3cccnc3)c2)n1 [Example 56]	1.31
O=C(NCC(F)(F)F)c1cccc(-c2cnn(-c3cccnc3)c2)n1 [Example 57]	2.12
CN1CCOC(c2cccc(-c3cnn(-c4cccnc4)c3)n2)=N1 [Example 58]	1.54
Fc1cncc(-n2cc(-c3cccc(C(F)(F)F)n3)cn2)c1 [Example 59]	3.1
c1cncc(-n2cc(-c3cccc(C4OCC5(CC5)CO4)n3)cn2)c1 [Example 60]	1.97
c1cncc(-n2cc(-c3cccc(-n4ccnn4)n3)cn2)c1 [Example 61]	1.68
c1cncc(-n2cc(-c3cccc(-c4noc(C5CC5)n4)n3)cn2)c1 [Example 62]	2.16
FC(F)c1cccc(-c2cnn(-c3cccnc3)c2)n1 [Example 63]	2.02
c1cncc(-n2cc(-c3cccc(-c4nc[nH]n4)n3)cn2)c1 [Example 64]	1.14
ClC1(c2cccc(-c3cnn(-c4cccnc4)c3)n2)CC1 [Example 65]	3.22
c1cc(-c2cnn(-c3cncnc3)c2)nc(C2OCCCO2)c1 [Example 68]	1.51
CC1(c2cccc(-c3cnn(-c4cccnc4)c3)n2)OCCCO1 [Example 69]	1.78
Cc1nc(-c2cccc(-c3cnn(-c4cccnc4)c3)n2)no1 [Example 70]	1.66
CC1CC(C)OC(c2cccc(-c3cnn(-c4cccnc4)c3)n2)O1 (stereo not shown) [Example 71]	2.37
CC1OC(c2cccc(-c3cnn(-c4cccnc4)c3)n2)OC1C (stereo not shown) [Example 72]	2.13
Fc1cncc(-n2cc(-c3cccc(C4OCCCO4)n3)cn2)c1 [Example 73]	2.12
FC(F)(F)c1nc(-c2cccc(-c3cnn(-c4cccnc4)c3)n2)no1 [Example 74]	2.77
C=C1COC(c2cccc(-c3cnn(-c4cccnc4)c3)n2)OC1 [Example 75]	1.9
c1cncc(-n2cc(-c3cccc(-c4ncco4)n3)cn2)c1 [Example 76]	1.57
Cc1ccn(-c2cccc(-c3cnn(-c4cccnc4)c3)n2)n1 [Example 77]	2.51

Same assay, conditions: logP (neutral), neutral

Structure (SMILES)	logP
CC1(c2cccc(-c3cnn(-c4cccnc4)c3)n2)OCCO1 [Example 10, 2-(2-Methyl-1,3-dioxolan-2-yl)-6-(1-pyridin-3-yl-1H-pyrazol-4-yl)pyridine]	1.89
N#Cc1cccc(-c2cnn(-c3cccnc3)c2)n1 [Example 30, 6-(1-Pyridin-3-yl-1H-pyrazol-4-yl)pyridine-2-carbonitrile]	1.79
COCC1(c2cccc(-c3cnn(-c4cccnc4)c3)n2)OCCCO1 [Example 49]	1.69
CN1CCOC(c2cccc(-c3cnn(-c4cccnc4)c3)n2)=N1 [Example 58]	1.68
Fc1cncc(-n2cc(-c3cccc(C(F)(F)F)n3)cn2)c1 [Example 59]	3.14
c1cncc(-n2cc(-c3cccc(C4OCC5(CC5)CO4)n3)cn2)c1 [Example 60]	2.12
CC(C)C(F)(F)c1cccc(-c2cnn(-c3cccnc3)c2)n1 [Example 66]	3.22
CC(C)C(=O)c1cccc(-c2cnn(-c3cccnc3)c2)n1 [Example 67]	2.84
c1cc(-c2cnn(-c3cncnc3)c2)nc(C2OCCCO2)c1 [Example 68]	1.56
Fc1cncc(-n2cc(-c3cccc(C4OCCCO4)n3)cn2)c1 [Example 73]	2.13
c1cncc(-n2cc(-c3cccc(-c4ncco4)n3)cn2)c1 [Example 76]	1.69

Same assay, conditions: neutral

Structure (SMILES)	logP (neutral)
N#Cc1cccc(-c2cnn(-c3cccnc3)c2)n1 [Example 30, 6-(1-Pyridin-3-yl-1H-pyrazol-4-yl)pyridine-2-carbonitrile]	1.73
